Assay results taken from patent US20260219194A1, “BIOSENSOR FOR WATER ANALYSIS” (BIOCELL ANALYTICA UPPSALA AB, priority 2023, published 2026).

Test system: estrogen responsive promoter (four repeats of estrogen response element, ERE) in MCF-7/S0.5 reporter cells
Assay: Estrogen-responsive NanoLuc luciferase reporter assay in transfected MCF-7/S0.5 cells, luminescence in culture medium without cell lysis
Type: cell-based, human
Settings: MCF-7/S0.5 reporter cells exposed for 24 h to 0.03 to 109 ng/L
Description: MCF-7/S0.5 human breast cancer cells (Sigma-Aldrich, catalogue no. SCC100) were cultured in medium supplemented with 1% charcoal-stripped fetal bovine serum (FBS) for 48 hours prior to seeding. The cells were then seeded in medium supplemented with 1% FBS and incubated for 48 hours. […]
The luminescence was measured in the cell culture medium by a Spark® Multimode Microplate Reader (Tecan) from three experimental groups: a) negative control with only cell culture medium but no cells, b) cell culture medium and non-transfected cells, and c) cell cultured medium and cells transfected with the reporter plasmid mentioned above (“reporter cells”).
The MCF-7/S0.5 cells transfected with the reporter plasmid where the expression of NanoLuc® luciferase with an N-terminal secretion signal was under the regulation of an estrogen responsive promoter produced in Example 1 were exposed for 24 h to increasing concentrations of 17β-estradiol, ranging from 0.03 to 109 ng/L. The luminescence was then analyzed in the cell culture medium, without cell lysis.

C[C@]12CC[C@@H]3c4ccc(O)cc4CC[C@H]3[C@@H]1CC[C@@H]2O [E2, 17β-estradiol]
amount of NanoLuc luciferase secreted into the cell culture medium (FIG. 6): increasing with increasing concentration of E2
effect concentration 20% (EC20) (luminescence of secreted NanoLuc luciferase in cell culture medium): 0.00019 ng/mL
